From US12624003B2, “Carboxylic acid containing indanyl compounds for the treatment of neurodegenerative diseases” (Celgene Corporation, priority 2020, dated 2026)
pEC50: −log10 of the molar value.

Target: T1, S1P5 (Homo sapiens, UniProt Q9H228)
T1 construct: expressed in transfected cells; host or cells: CHO cells (membranes)
Experiment: [35S]-GTPγS functional binding assay on CHO-S1P5 membranes
Assay type: biochemical
Conditions: membranes of CHO cells expressing recombinant S1P5 receptors; measure of S1P5 agonism
Procedure: CHO cells expressing recombinant S1P5 receptors were cultured in 500 cm^2 culture trays and, once confluent, rinsed and detached with cell-lifting buffer (10 mM HEPES, 154 mM NaCl, 6.85 mM EDTA, pH 7.4). Cells were then pelleted by centrifugation, resuspended, and homogenized in membrane preparation buffer (10 mM HEPES and 10 mM EDTA, pH 7.4) using a Polytron PT 1200E homogenizer (Kinematica, Luzern, Switzerland). Cellular proteins were pelleted by centrifugation at 48,000×g at 4° C. for 30 minutes. The resulting supernatant was discarded, and the pellet was re-suspended again in membrane preparation buffer, homogenized for a second time, and then centrifuged again as described above. The final cellular protein pellet was suspended in ice cold resuspension buffer (10 mM HEPES and 0.1 mM EDTA, pH 7.4), divided into aliquots, and stored at −80° C. until use.
Functional binding assays for [^35S]-GTPγS were performed in 96-well non-binding surface plates with a final volume of 200 μL. The test compounds were serially diluted in DMSO and added to assay plates using a Tecan D300E digital printer with a total volume of 0.4 μL. The control sphingosine-1-phosphate (S1P) was prepared separately by preparing a 400 μM stock solution from a 100 nmol pellet of SIP in 10 mM Na2CO3 with 2% s-cyclodextrin. The serial dilution of S1P was done using complete assay buffer (20 mM HEPES, 10 mM MgCl2, 100 mM NaCl, 1 mM EDTA, 0.1% fatty acid free bovine serum albumin (BSA), and 30 μg/mL saponin, pH 7.4) and transferred to wells already containing 0.4 μL DMSO. All the wells were then loaded to a total volume of 40 μL of complete assay buffer, except the non-specific binding (NSB) wells. For NSB wells, 40 μL/well of 50 μM GTPγS (Sigma Aldrich, cat #G8634, St. Louis, MO) was added to wells containing 0.4 μL of DMSO. The assay was started by the addition of 120 μL/well of CHO-S1P receptor membrane solution containing 40 μg/mL of membrane protein, 16.67 μM guanosine diphosphate (GDP; Sigma Aldrich, cat #G7127, St. Louis, MO), and 2.5 mg/mL of WGA PVT SPA beads in complete buffer. Assay plates were then sealed and incubated at room temperature with gentle agitation for 30 minutes. Next, 40 μL/well of 1 nM of [^35S]-GTPγS (PerkinElmer, cat #NEG030X250UC, Waltham, MA) in basic assay buffer (20 mM HEPES, 10 mM MgCl2, 100 mM NaCl, and 1 mM EDTA, pH 7.4) was added to the assay plates to yield a final concentration of […] and the plates were further incubated for 40 minutes at room temperature with gentle agitation. The assay was terminated by centrifugation of the plates at 1000 rpm for 3 minutes using an Eppendorf 5810R centrifuge (Eppendorf, Hamburg, Germany) and G protein bound radioactivity was quantitated using a MicroBeta2 microplate scintillation counter (PerkinElmer, Waltham, MA). As G protein bound radioactivity directly correlates to receptor activation and coupling to the G protein, this assay is a measure of S1P5 agonism.

T1 sequence (Q9H228 whole entry, species assumed): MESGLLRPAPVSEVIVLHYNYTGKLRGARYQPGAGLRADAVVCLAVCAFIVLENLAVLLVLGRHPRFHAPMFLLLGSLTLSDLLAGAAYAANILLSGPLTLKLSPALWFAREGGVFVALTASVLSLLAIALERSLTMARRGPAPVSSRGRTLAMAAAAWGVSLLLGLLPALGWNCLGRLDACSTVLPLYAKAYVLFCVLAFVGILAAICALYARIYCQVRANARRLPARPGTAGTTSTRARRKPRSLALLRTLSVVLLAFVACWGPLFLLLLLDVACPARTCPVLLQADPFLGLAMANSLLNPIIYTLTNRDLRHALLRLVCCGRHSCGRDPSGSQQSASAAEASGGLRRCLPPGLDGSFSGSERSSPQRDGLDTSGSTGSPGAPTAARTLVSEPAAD

| pEC50 | Compound |
| --- | --- |
| ≥ 8.00 | O=C(O)[C@@H]1CCN(C2CCc3cc(-c4ccc(C5CC5)c(Cl)c4)ccc32)C1 (single isomer, unassigned) [Compound 34a] |
| 7.00 to 8.00 | O=C(O)C1CCN(C2CCc3cc(CCc4cccc(F)c4)ccc32)CC1 (single isomer, unassigned) [Compound 26b, 1-(5-(3-fluorophenethyl)-2,3-dihydro-1H-inden-1-yl)piperidine-4-carboxylic acid] |
